Each structure is given as a SMILES string.

In general, EC50 refers to the concentration at which the effect is half-maximal. A low value points to a more potent agent.

The subject of the test is C. elegans polyQ-huntingtin mechanosensory neurons, touch response. Nature of the test: restoration of touch response, mutant HTT neurons – whole organism, C. elegans mechanosensory neurons, N-terminal huntingtin (AID 1599).
As to `CC(=O)OCC1=C(C(=O)O)N2C(=O)[C@@H](NC(=O)CCCC(N)C(=O)O)C2SC1` (stereo partly specified), the EC50 was 2 µM. That is a single-digit micromolar value.

`O=c1oc2ccccc2c(O)c1Cc1c(O)c2ccccc2oc1=O` gave an EC50 of 4.2 µM. Against the preceding compound, the EC50 is about 2.1-fold higher.

The compound `C[C@@H]1O[C@@H](O[C@H]2[C@H](Oc3cc(O)c4c(c3)O[C@H](c3ccc(O)cc3)CC4=O)O[C@H](CO)[C@@H](O)[C@@H]2O)[C@H](O)[C@H](O)[C@H]1O` gave an EC50 of 0.8 µM. The value for `CC1=C2C(=CO[C@H](C)[C@H]2C)C(=O)C(C(=O)O)=C1O` was 40 µM; that for `OCCN1CCN(CCCN2c3ccccc3Sc3ccc(Cl)cc32)CC1` was 1 µM; that for `CC1=NN(c2ccccc2)C(=O)C1` was 0.016 µM. With `C[C@@]1(C(=O)O)CC[C@]2(C)CC[C@]3(C)C4=CC=C5C=C(O)C(=O)C=C5[C@]4(C)CC[C@@]3(C)[C@@H]2C1` the figure was 0.4 µM; with `CC(C)NNC(=O)c1ccncc1`, 16 µM. The compound `Oc1c(Cl)cc(Cl)c2cccnc12` registered an EC50 of 3 µM. In turn, `O=c1c2ccccc2[se]n1-c1ccccc1` displayed an EC50 of 0.2 µM. This EC50 is about 15-fold lower than that of the compound before. On to `COc1ccc2cc(CCC(C)=O)ccc2c1`, for which the EC50 stood at 10 µM. With `Clc1ccc(COC(Cn2ccnc2)c2ccc(Cl)cc2Cl)cc1` (stereo unspecified) the figure was 3 µM; with `Cc1cc2cc3c(C)cc(=O)oc3c(C)c2o1`, 3.8 µM; with `Clc1ccc(C(OCCN2CCCCC2)c2ccccc2)cc1` (stereo unspecified), 28 µM. Take `C=Cc1c(C)c2cc3[nH]c(cc4nc(cc5nc(cc1[nH]2)C(C)=C5CCC(=O)O)C(CCC(=O)O)=C4C)c(C)c3C=C`: the concentration giving a half-maximal response (EC50) turned out to be 0.005 µM. Compound `Cc1cc(O)cc(C)c1Cl` returned a half-maximal effective concentration (EC50) of 3.3 µM. With `CCn1cc(C(=O)O)c(=O)c2cc3c(cc21)OCO3` the figure was 2.3 µM; with `CC(C)(C)c1ccc(C(O)CCCN2CCC(C(O)(c3ccccc3)c3ccccc3)CC2)cc1` (stereo unspecified), 0.9 µM; with `CN1CCN(C2=Nc3cc(Cl)ccc3Nc3ccccc32)CC1`, 4.4 µM. The value for `CNc1ccc2oc(C[C@@H]3OC4(CC[C@@H]3C)O[C@H](C(C)C(=O)c3ccc[nH]3)[C@H](C)C[C@H]4C)nc2c1C(=O)O` (stereo partly specified) was 5.5 µM; that for `COc1ccc(Cl)cc1C(=O)NCCc1ccc(S(=O)(=O)NC(=O)NC2CCCCC2)cc1` was 2.3 µM; that for `CN1CCC(=C2c3ccccc3Sc3ccccc32)CC1` was 24 µM. Consider `CN(C)CCCN1c2ccccc2CCc2ccc(Cl)cc21`, for which the 50% effective concentration (EC50) was found to be 28 µM. `O=C1c2ccc(O)c(O)c2C(=O)c2c(O)ccc(O)c21`: the EC50 was 2.8 µM. Against the preceding compound, the EC50 is about 10-fold lower. The value for `CCCCNc1ccc(C(=O)OCCN(C)C)cc1` was 5.8 µM; that for `CNCCC=C1c2ccccc2CCc2ccccc21` was 1.8 µM.

The values above are taken from PubChem BioAssay AID1599 (NINDS Approved Drug Screening Program, 2009).
